Measurements taken from PubChem BioAssay AID1919009 (Molecular Pharmacology Branch, DTP, NCI, 2023).

Tested on: K24384-001-R-PDC complex spheroid growth
Assay: Anticancer human tumor K24384-001-R-PDC patient-derived pancreatic adenocarcinoma cell line growth inhibition [AhR]
Conditions: for IC50: curve of first compound; for viability, T/C: stronger effect = lower value; active means viability on the fitted dose curve at most 10% of control; inactive means the rest
Outline: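 Spheroids combined tumor cells with HUVEC endothelial cells and human MSCs as stroma. AhR antagonists were paired with standard or investigational drugs, each dosed in half-log steps down from near clinical Cmax, or from 10 microM where Cmax was unknown.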

[1] = second compound 0.1 µM, first compound 0.0316 µM
[2] = second compound 0.1 µM, first compound 0.1 µM
[3] = second compound 0.316 µM, first compound 0.0316 µM
[4] = second compound 0.316 µM, first compound 0.1 µM
[5] = second compound 1 µM, first compound 0.0316 µM
[6] = second compound 1 µM, first compound 0.1 µM
[7] = second compound 3.16 µM, first compound 0.0316 µM
[8] = second compound 3.16 µM, first compound 0.1 µM
[9] = second compound 10 µM, first compound 0.0316 µM
[10] = second compound 10 µM, first compound 0.1 µM
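Wherever viability, T/C is given: percent of DMSO vehicle-treated spheroid viability set as 100%.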

Cn1ncnc1C1c2n[nH]c(=O)c3cc(F)cc(c23)NC1c1ccc(F)cc1 (stereo not given) + Cc1ccccc1N=Nc1ccc(NC(=O)c2ccnn2C)c(C)c1
> 100 nM: IC50 (second compound 0.1 µM) | IC50 (second compound 0.316 µM) | IC50 (second compound 1 µM) | IC50 (second compound 3.16 µM) | IC50 (second compound 10 µM)
inactive: viability, T/C (second compound 0.1 µM, first compound 0.000316 µM) 100% | viability, T/C (second compound 0.1 µM, first compound 0.001 µM) 110% | viability, T/C (second compound 0.1 µM, first compound 0.00316 µM) 110% | viability, T/C (second compound 0.1 µM, first compound 0.01 µM) 98.2% | viability, T/C [1] 79% | viability, T/C [2] 96.7% | viability, T/C (second compound 0.316 µM, first compound 0.000316 µM) 104% | viability, T/C (second compound 0.316 µM, first compound 0.001 µM) 112% | viability, T/C (second compound 0.316 µM, first compound 0.00316 µM) 75.8% | viability, T/C (second compound 0.316 µM, first compound 0.01 µM) 74.3% | viability, T/C [3] 67.1% | viability, T/C [4] 73.5% | viability, T/C (second compound 1 µM, first compound 0.000316 µM) 98.2% | viability, T/C (second compound 1 µM, first compound 0.001 µM) 84.3% | viability, T/C (second compound 1 µM, first compound 0.00316 µM) 73.3% | viability, T/C (second compound 1 µM, first compound 0.01 µM) 72.8% | viability, T/C [5] 66.3% | viability, T/C [6] 66% | viability, T/C (second compound 3.16 µM, first compound 0.000316 µM) 86.9% | viability, T/C (second compound 3.16 µM, first compound 0.001 µM) 87.8% | viability, T/C (second compound 3.16 µM, first compound 0.00316 µM) 87.6% | viability, T/C (second compound 3.16 µM, first compound 0.01 µM) 67.4% | viability, T/C [7] 65.6% | viability, T/C [8] 62.8% | viability, T/C (second compound 10 µM, first compound 0.000316 µM) 91.8% | viability, T/C (second compound 10 µM, first compound 0.001 µM) 84% | viability, T/C (second compound 10 µM, first compound 0.00316 µM) 102% | viability, T/C (second compound 10 µM, first compound 0.01 µM) 86% | viability, T/C [9] 82.3% | viability, T/C [10] 66.2%

NS(=O)(=O)OCC1CC(n2ccc3c(NC4CCc5ccccc54)ncnc32)CC1O (stereo not given) + Cc1ccccc1N=Nc1ccc(NC(=O)c2ccnn2C)c(C)c1
inactive: viability, T/C [1] 104% | viability, T/C [2] 117% | viability, T/C (second compound 0.1 µM, first compound 0.316 µM) 96.4% | viability, T/C (second compound 0.1 µM, first compound 1 µM) 47.4% | viability, T/C (second compound 0.1 µM, first compound 3.16 µM) 23.7% | viability, T/C (second compound 0.1 µM, first compound 10 µM) 22.1% | viability, T/C [3] 104% | viability, T/C [4] 115% | viability, T/C (second compound 0.316 µM, first compound 0.316 µM) 98.8% | viability, T/C (second compound 0.316 µM, first compound 1 µM) 46.1% | viability, T/C (second compound 0.316 µM, first compound 3.16 µM) 27.3% | viability, T/C (second compound 0.316 µM, first compound 10 µM) 18.3% | viability, T/C [5] 117% | viability, T/C [6] 127% | viability, T/C (second compound 1 µM, first compound 0.316 µM) 83.5% | viability, T/C (second compound 1 µM, first compound 1 µM) 39.5% | viability, T/C (second compound 1 µM, first compound 3.16 µM) 24.2% | viability, T/C (second compound 1 µM, first compound 10 µM) 22.6% | viability, T/C [7] 103% | viability, T/C [8] 108% | viability, T/C (second compound 3.16 µM, first compound 0.316 µM) 58.3% | viability, T/C (second compound 3.16 µM, first compound 1 µM) 32.7% | viability, T/C (second compound 3.16 µM, first compound 3.16 µM) 24.6% | viability, T/C (second compound 3.16 µM, first compound 10 µM) 20.9% | viability, T/C [9] 96.2% | viability, T/C [10] 104% | viability, T/C (second compound 10 µM, first compound 0.316 µM) 59% | viability, T/C (second compound 10 µM, first compound 1 µM) 30.1% | viability, T/C (second compound 10 µM, first compound 3.16 µM) 23.4% | viability, T/C (second compound 10 µM, first compound 10 µM) 20.3%
432 nM: IC50 (second compound 3.16 µM)
732 nM: IC50 (second compound 1 µM)
932 nM: IC50 (second compound 0.1 µM)
928 nM: IC50 (second compound 0.316 µM)
427 nM: IC50 (second compound 10 µM)

Nc1ncn(C2CC(O)C(CO)S2)c(=O)n1 (stereo not given) + Cc1ccccc1N=Nc1ccc(NC(=O)c2ccnn2C)c(C)c1
> 300 nM: IC50 (second compound 0.1 µM) | IC50 (second compound 0.316 µM) | IC50 (second compound 1 µM) | IC50 (second compound 3.16 µM) | IC50 (second compound 10 µM)
inactive: viability, T/C (second compound 0.1 µM, first compound 0.000949 µM) 92.5% | viability, T/C (second compound 0.1 µM, first compound 0.003 µM) 103% | viability, T/C (second compound 0.1 µM, first compound 0.00949 µM) 105% | viability, T/C (second compound 0.1 µM, first compound 0.03 µM) 79.3% | viability, T/C (second compound 0.1 µM, first compound 0.0949 µM) 66% | viability, T/C (second compound 0.1 µM, first compound 0.3 µM) 57.8% | viability, T/C (second compound 0.316 µM, first compound 0.000949 µM) 111% | viability, T/C (second compound 0.316 µM, first compound 0.003 µM) 99.7% | viability, T/C (second compound 0.316 µM, first compound 0.00949 µM) 88.4% | viability, T/C (second compound 0.316 µM, first compound 0.03 µM) 66.2% | viability, T/C (second compound 0.316 µM, first compound 0.0949 µM) 65.8% | viability, T/C (second compound 0.316 µM, first compound 0.3 µM) 54.5% | viability, T/C (second compound 1 µM, first compound 0.000949 µM) 99.3% | viability, T/C (second compound 1 µM, first compound 0.003 µM) 82% | viability, T/C (second compound 1 µM, first compound 0.00949 µM) 68.7% | viability, T/C (second compound 1 µM, first compound 0.03 µM) 78.9% | viability, T/C (second compound 1 µM, first compound 0.0949 µM) 61.5% | viability, T/C (second compound 1 µM, first compound 0.3 µM) 58% | viability, T/C (second compound 3.16 µM, first compound 0.000949 µM) 86.6% | viability, T/C (second compound 3.16 µM, first compound 0.003 µM) 83.3% | viability, T/C (second compound 3.16 µM, first compound 0.00949 µM) 92.6% | viability, T/C (second compound 3.16 µM, first compound 0.03 µM) 63.5% | viability, T/C (second compound 3.16 µM, first compound 0.0949 µM) 53.1% | viability, T/C (second compound 3.16 µM, first compound 0.3 µM) 46.9% | viability, T/C (second compound 10 µM, first compound 0.000949 µM) 100% | viability, T/C (second compound 10 µM, first compound 0.003 µM) 103% | viability, T/C (second compound 10 µM, first compound 0.00949 µM) 87.4% | viability, T/C (second compound 10 µM, first compound 0.03 µM) 82.8% | viability, T/C (second compound 10 µM, first compound 0.0949 µM) 72.4% | viability, T/C (second compound 10 µM, first compound 0.3 µM) 60.7%
